Test [1] concerns the target T1, Procathepsin L (Homo sapiens, UniProt P07711). Nature of the test: Ability to block cathepsin L-catalyzed hydrolysis of the fluorogenic substrate Z-Phe-Arg-NHMec.
The next test concerns the target Cathepsin B (Bos taurus, UniProt P07688). Nature of the test: Ability to block cathepsin B-catalyzed hydrolysis of the fluorogenic substrate Z-Arg-Arg-NHMec.
Test [2] deals with T1, Procathepsin L. Nature of the test: Ability to block cathepsin L-catalyzed hydrolysis of the fluorogenic substrate Z-Phe-Arg-NHMec, at 100 uM conc.; no inhibition.

Among the data in ChEMBL document CHEMBL1133264, “Development of peptidyl alpha-keto-beta-aldehydes as new inhibitors of cathepsin L--comparisons of potency and selectivity profiles with cathepsin B” (Bioorg Med Chem Lett, 2000) are Ki values, retold here.

T1 sequence (P07711 whole entry): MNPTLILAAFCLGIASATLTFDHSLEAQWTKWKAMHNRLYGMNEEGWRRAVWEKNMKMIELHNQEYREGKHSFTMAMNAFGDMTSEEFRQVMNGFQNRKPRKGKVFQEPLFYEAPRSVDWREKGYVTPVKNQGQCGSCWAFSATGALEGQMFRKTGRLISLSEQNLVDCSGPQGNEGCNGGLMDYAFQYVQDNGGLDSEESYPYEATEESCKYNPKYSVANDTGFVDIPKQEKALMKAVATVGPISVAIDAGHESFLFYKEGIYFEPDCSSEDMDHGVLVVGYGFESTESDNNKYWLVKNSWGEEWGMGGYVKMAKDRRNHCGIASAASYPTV

What is called Ki is a dissociation constant, usually derived from enzyme kinetics or from competition with a known ligand. High values mean a looser hold on the target, low ones a stronger hold on the target. As to `CC(=O)N[C@@H](CC(C)C)C(=O)N[C@@H](CC(C)C)C(=O)N[C@@H](CCCN=C(N)N)C(=O)C=O`, the figures for the Ki at Procathepsin L [1] and on Cathepsin B were 970 nM and 1250 nM, respectively.

As to `CCCCOc1ccc(C[C@H](NC(=O)[C@H](Cc2ccccc2)NC(=O)OCc2ccccc2)C(=O)C=O)cc1`, the Ki came to 0.6 nM at Procathepsin L [1] and 214 nM on Cathepsin B.

As to `CC(=O)N[C@@H](CCCN=C(N)N)C(=O)N[C@@H](CCCN=C(N)N)C(=O)C=O`, the Ki entry on Procathepsin L [2] is “Not Active”; at Cathepsin B, 640 nM.

With `N=C(N)NCCC[C@H](NC(=O)[C@H](Cc1ccccc1)C(=O)OCc1ccccc1)C(=O)C=O`, the inhibition constant (Ki) on Procathepsin L [1] was 90 nM; at Cathepsin B, 40 nM.
